Experimental data: patent US10144758B2, “Deuterated bile acids” (Metselex, Inc., priority 2013, dated 2018)

Tested on: primary rat hepatocytes
Assay: DCA-induced cytotoxicity, LDH release
Assay type: cell-based
Protocol: Primary rat hepatocytes were isolated from male rats (100-150 grams) by collagenase perfusion (as described by Solá S, et al., 2003, Journal of Biological Chemistry 278: 48831-48838)). Briefly, rats were anesthetized with phenobarbital sodium (100 mg/kg body weight) injected into the peritoneal cavity. After administration of heparin (200 units/kg body weight) in the tail vein, the animal's abdomen was opened and the portal vein exposed and cannulated. The liver was then perfused at 37° C. in situ with a calcium-free Hanks' Balanced Salt Solution (HBSS) for about 10 minutes, and then with 0.05% collagenase type IV in calcium-present HBSS for another 10 minutes. Hepatocyte suspensions were obtained by passing collagenase-digested livers through 125 μm gauze and washing cells in Complete William's E medium (William's E medium, Sigma-Aldrich Corp., St Louis, Mo., USA) supplemented with 26 mM sodium bicarbonate, 23 mM HEPES, 0.01 units/mL insulin, 2 mM L-glutamine, 10 nM dexamethasone, 100 units/mL penicillin, and 10% heat-inactivated fetal bovine serum (Invitrogen Corp., Carlsbad, Calif., USA). Viable primary rat hepatocytes were enriched by low-speed centrifugation at 200 g for 3 minutes. Cell viability was determined by trypan blue exclusion and was typically 80-85%. After isolation, hepatocytes were resuspended in Complete William's E medium and plated on PrimariaTM tissue culture dishes (BD Biosciences, San Jose, Calif., USA) at 5×10^4 cells/cm^2. Cells were maintained at 37° C. in a humidified atmosphere of 5% CO2 for 6 hours to allow attachment. Plates were then washed with medium to remove dead cells and incubated in Complete William's E medium supplemented with either 100-400 μM UDCA (Sigma-Aldrich Corp.), 100-400 μM deuterated UDCA (compound 5), or no addition (control). Eight hours after pre-incubation, cells were exposed to 1 nM recombinant human TGF-β1 (R&D Systems Inc., Minneapolis, Minn., USA) for 36 hours, or to 50 or 100 μM DCA for 16 hours before processing for cell viability, cytotoxicity and apoptosis assays. The ApoTox-GloTM Triplex Assay (Promega Corp., Madison, Wis., USA) was used to evaluate cell viability, cytotoxicity and caspase-3/7 activity, according to the manufacturer's protocol, using a GloMax+ Multi Detection System (Promega Corp.). General cell death was also evaluated using the lactate dehydrogenase (LDH) Cytotoxicity Detection Kit^PLUS (Roche Diagnostics GmbH, Mannheim, Germany), following the manufacturer's instructions. FIG. 7 illustrates that Compound 5 prevents DCA-induced cytotoxicity and apoptosis in primary rat hepatocytes. […] Results are expressed as means±SEM of at least three experiments. *p<0.01 from control; § p<0.05 and †p<0.01 from respective DCA.

| Compound | inhibition of DCA-induced LDH release (50 μM DCA 16 hours, 100 μM compound pre-incubated 8 hours, FIG. 7A) | protective effect on LDH release greater than UDCA (50 μM DCA, Compound 5 versus UDCA) | protection against DCA-induced LDH release (100 μM DCA, compared with 50 μM DCA) | inhibition at 100 µM (Rattus norvegicus, Hepatocyte, 50 μM DCA 16 hours, 100 μM compound pre-incubated 8 hours, FIG. 7A) |
| --- | --- | --- | --- | --- |
| 7,8-[^2H]-3α,7α-dihydroxy-5β-cholan-24-oic acid/7-[^2H]-3α,7α-dihydroxy-5β-cholan-24-oic acid [Compound 5] | 90% | more than 10% | Slightly reduced protection |  |
| C[C@H](CCC(=O)O)[C@H]1CC[C@H]2[C@@H]3[C@@H](O)C[C@@H]4C[C@H](O)CC[C@]4(C)[C@H]3CC[C@]12C [UDCA, Ursodeoxycholic acid, reference compound] |  |  |  | 70% |
